“Also recorded” adds a separate entry of the source. Where two headings read alike, the source gives them in different places.
What was measured:
LNCaP cells [1] = assay: LNCaP cell viability (PrestoBlue); format: cell-based; details: Homo sapiens; for IC50: 96 hours, 0-25 μM, read-out: IC50 LNCaP cell proliferation / viability
Description: (§1) LNCaP were plated at 5000 cells per well in RPMI 1640 containing 5% CSS in a 96-well plate, treated with test compounds (0-25 μM) for 96 hours. Cell density was measured using the PrestoBlue™ assay according to the manufacturer's protocol. The percentage of cell survival was normalized to the cell density of control wells treated by vehicle. Viability of Myc-negative […] cells was done similarly but in DMEM supplemented with 5% CSS.
(§2) The effect of hit compounds on Myc-driven cell proliferation was evaluated by measuring the cell viability of LNCaP cells after treatment with increasing concentrations of compounds.

[2] = tested on: Myc-Max/UBE2C downstream pathway; assay: UBE2C promoter luciferase reporter assay in 22rv1 cells; format: cell-based; details: for inhibition at 25 µM: Homo sapiens
Description: (§3) Cell transfection was performed using TransIT-2020™ transfection reagents according to the manufacturer's instructions (Mirus™). LNCaP cells were plated at 10000 cells per well and treated for 1 day with the indicated concentration of compound. Myc reporter activity was measured using the Cignal Myc Reporter Assay Kit™ from Qiagen™ (#336841) according to the manufacturer's instructions. For the UBE2C reporter assay, 22rv1 cells were plated at 10000 cells per well in 96-well plates in RPMI media supplemented with 5% charcoal-stripped serum (CSS) and treated for 1 day with 1 μM, 10 μM and 25 μM of compound.
Myc inhibition was recently reported to reduce levels of the constitutively active androgen receptor splice variant AR-V7 in 22rv1 cells. […] The dose-dependent reduction of luciferase levels by the identified hits indicates a Myc-related reduction of AR-V7 level in the cells (see TABLE 1). […] The AR-V7 reduction with the hits was confirmed by Western blot (FIG. 2B).

[3] = tested on: Myc-Max transcriptional activity; assay: Cignal c-Myc luciferase reporter assay in LNCaP cells; format: cell-based; details: Homo sapiens
Description: as §3
Compounds were subjected to experimental evaluation using the commercially available transcriptional assay Cignal c-Myc luciferase reporter assay in LNCaP cells. […] A transiently transfected Myc-driven luciferase reporter allowed the monitoring of Myc-regulated signal in LNCaP upon treatment with the in silico identified compounds.

Myc-Max complex = target: T1, Myc-Max complex (Homo sapiens, UniProt P01106+P61244); assay: Biolayer interferometry of Myc-Max binding to biotinylated E-box DNA; details: for Myc-Max interaction with immobilized E-box DNA: 500 μM compound (FIG. 3C); for BLI binding: TABLE 2
T1 construct: GST tagged Myc (residues 368-454); Histidine tagged Max (residues 23-102); made in house; host or cells: E. coli BL21-DE3
Description: Histidine tagged Max (residues 23-102) and GST tagged Myc (residues 368-454) were overexpressed in E. coli BL21-DE3 cells. Cells were co-lyzed in lysis buffer (20 mM Tris pH 8, 500 mM NaCl, 5% glycerol, 10 mM imidazole, 8 mM BME, 2.1 mM PMSF). After sonication and centrifugation, the complex was first purified by using a Ni-NTA affinity resin. After overnight dialysis to remove the imidazole, the protein sample was applied to a size exclusion chromatography equilibrated with (20 mM Tris pH 8, 150 mM NaCl, 5% glycerol, 0.2 mM TCEP). Fractions containing equal amount of Myc and Max on SDS PAGE were collected and used for the binding assay. The presence of both proteins was validated by Western blot using a specific antibody of each protein (Max (h2) Sc-8011 and c-Myc (9E10) Sc-40, Santa Cruz Biotechnology™)
The direct interaction between biotinylated E-box oligo ([…]) immobilized on a streptavidin biosensor and a purified Myc-Max complex (0.05 mg/ml) was quantified by BLI using OctetRED (ForteBio™). The DNA was first bound to the super-streptavidin sensors over 1000 sec at 25° C. The sensors were next moved into wells containing the reaction buffer (20 mM Tris pH 8, 150 mM NaCl, 5% glycerol, 0.2 mM TCEP, 5% dimethylsulfoxide) for measuring the baseline and next into the Myc-Max complex alone or in presence of the tested inhibitors to study the association of the complex to the DNA.
Direct Binding and disruption of protein-DNA interaction. To study the direct effect of our hit compounds VPC-70063 and VPC-70067 on the interaction between Myc-Max heterodimer and the DNA, we used Bio-Layer Interferometry (BLI, ForteBio™). This technique is a label-free technology allowing the measurement of direct interactions between two partners, one immobilized on a sensor and the other one present in a solution. We applied this technology to study the disruption of the interaction between a biotinylated E-box oligo immobilized on a streptavidin biosensor and a purified Myc-Max complex in presence of our compounds. Therefore, histidine-tagged Max (residues 23-102) and GST tagged Myc (residues 368-454) were overexpressed and co-purified. The fraction containing equal amount of Myc and Max was collected and used for the binding assay (FIG. 3B). The presence of both proteins was validated by Western blot using a specific antibody of each protein. […] Additionally, we tested the ability of our best compound VPC-70063 to disrupt the interaction of MYC/MAX with DNA in a dose dependent manner.

[4] = Cell viability of Myc negative (c-Myc knockout) HO15.19 cells; format: cell-based; details: rat, HO15.19 cells (c-Myc knockout, Myc-negative); 25 μM; read-out: % inhibition of Myc negative HO15.19 cells (cytotoxicity)
Description: as §1, §2

Myc-Max interaction = target: T2, Myc-Max interaction (Homo sapiens, UniProt P01106); assay: Mammalian two-hybrid assay in PC3 cells; format: cell-based; details: various concentrations
T2 construct: expressed in transfected cells; host or cells: PC3 cells
Description: Full lengths Myc and Max were cloned in pBIND and pACT plasmids (CheckMate™, Promega™), respectively. PC3 cells in RPMI 1640 supplemented with 5% FBS were seeded in 96-well plates at 5,000 cells/well. After 24 hours, cells were transfected with 15 ng of pACT-Max, 19.5 ng of pBIND-Myc, and 13.6 ng of the reporter plasmid PG5-luciferase. After 24 hours, cells were treated with various concentrations of the tested inhibitors. Cells were lysed the next day, and the luminescence signal was measured after adding 50 μL of luciferase assay reagent (Promega™). Each measurement was done in 4 replicates with biological replicates of 3. Luciferase levels corresponding to Myc-Max interactions were measured and normalized to a control provided by the commercial kit to discard non-specific effect due to toxicity or direct luciferase inhibition.
The effect of inhibitors of Myc-Max interaction was studied by using a mammalian two hybrid assay. Full lengths Myc and Max were cloned in pBIND and pACT plasmids (CheckMate™, Promega™), respectively. Luciferase levels corresponding to Myc-Max interactions were measured and normalized to a control provided by the commercial kit to discard non-specific effect due to toxicity or direct luciferase inhibition.

HO15.19 cells = assay: Cell viability of Myc negative (c-Myc knockout) HO15.19 cells; format: cell-based; details: for inhibition at 12 µM: read-out: % inhibition Myc K.O cells (12 uM)
Description: as §1, §2

LNCaP cells [5] = assay: PARP cleavage (apoptosis) by Western blot in LNCaP cells; format: cell-based; details: for PARP effect: TABLE 2, LNCaP cells; for PARP cleavage / apoptosis: LNCaP cells, Western blot
Description: After 48 hours of treatment with Myc compounds, LNCaP cells were lysed, and protein sample preparation followed by Western blotting were performed. Blots were incubated with primary antibodies against c-Myc, PARP (Sigma™ 084M4766V), PARP cleaved-Asp214 (Sigma™ SAB4500487) and β-Actin (Sigma™ A2066) overnight at 4° C., followed by appropriate peroxidase-conjugated secondary antibodies. β-actin served as an internal control. Visualization of the immunocomplexes was done by an enhanced chemiluminescence detection system (Millipore™) followed by exposure to X-ray films.
Apoptosis. Myc inhibition induces cell death by cell cycle arrest and apoptosis. Cleavage of PARP-1 by caspases is considered a hallmark of apoptosis and so we measured the ability of compounds to induce PARP cleavage after treatment.

[6] = LNCaP, 24 h, LNCaP cells, TABLE 1, read-out: Myc-Max transcriptional activity % inhibition (25 μM)
[7] = LNCaP, TABLE 3, read-out: % Inhibition 25 μM
[8] = LNCaP, TABLE 2, assay not named, values match Myc-Max transcriptional activity, read-out: IC50
[9] = LNCaP cells, dose response, Cignal c-Myc kit, read-out: IC50 Myc-Max transcriptional activity

T1 sequence (P01106 368-454): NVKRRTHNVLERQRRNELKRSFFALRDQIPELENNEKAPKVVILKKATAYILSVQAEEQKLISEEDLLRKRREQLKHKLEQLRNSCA
T1 sequence (P61244 23-102): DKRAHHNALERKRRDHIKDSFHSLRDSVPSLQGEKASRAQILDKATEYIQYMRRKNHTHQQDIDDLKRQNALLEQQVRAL
T2 sequence (P01106 whole entry): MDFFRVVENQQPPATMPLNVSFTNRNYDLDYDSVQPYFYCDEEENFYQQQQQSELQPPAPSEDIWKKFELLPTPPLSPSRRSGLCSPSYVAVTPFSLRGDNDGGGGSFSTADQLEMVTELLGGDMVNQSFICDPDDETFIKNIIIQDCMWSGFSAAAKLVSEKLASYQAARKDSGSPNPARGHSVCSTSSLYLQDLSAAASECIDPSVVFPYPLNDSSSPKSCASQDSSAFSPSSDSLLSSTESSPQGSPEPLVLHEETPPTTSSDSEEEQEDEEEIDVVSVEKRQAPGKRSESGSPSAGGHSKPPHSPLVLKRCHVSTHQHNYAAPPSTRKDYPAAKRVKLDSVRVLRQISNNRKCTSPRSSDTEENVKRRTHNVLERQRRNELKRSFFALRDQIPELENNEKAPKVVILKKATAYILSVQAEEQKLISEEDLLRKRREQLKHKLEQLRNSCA

| SMILES | IC50 (LNCaP cells [1]) [µM] | IC50 [3, 8] [µM] | IC50 [3, 9] [µM] | BLI binding (Myc-Max complex) | inhibition at 25 µM [2] [%] | inhibition at 25 µM [3, 6] [%] | Myc-Max interaction with immobilized E-box DNA (Myc-Max complex) | inhibition at 96 h, 25 µM [4] [%] | effect on Myc-Max interaction (Myc-Max interaction) | inhibition at 25 µM [3, 7] [%] | inhibition at 12 µM (HO15.19 cells; Rattus norvegicus, HO15.19) [%] | PARP effect (LNCaP cells [5]) | PARP cleavage / apoptosis (LNCaP cells [5]) | other results |
| --- | --- | --- | --- | --- | --- | --- | --- | --- | --- | --- | --- | --- | --- | --- |
| CCc1ccc(/C=C2\SC(=S)NC2=O)cc1 [Compound 10058-F4, [Z,E]-5-[4-ethylbenzylidine]-2-thioxothiazolidin-4-one, reference compound] | 18.3 | – | – | – | 70 | – | – | – | – | – | – | – | – | – |
| O=[N+]([O-])c1ccc(Nc2ccccc2-c2ccccc2)c2nonc12 [Compound 10074-G5, reference compound] | 8.7 | – | – | – | – | 88 | prevented from interacting with the immobilized DNA | 37 | did not show any effect | – | – | – | – | – |

Continued, in another order:

| IC50 (LNCaP cells [1]) [µM] | IC50 [3, 8] [µM] | IC50 [3, 9] [µM] | BLI binding (Myc-Max complex) | SMILES | inhibition at 25 µM [2] [%] | inhibition at 25 µM [3, 6] [%] | Myc-Max interaction with immobilized E-box DNA (Myc-Max complex) | inhibition at 96 h, 25 µM [4] [%] | effect on Myc-Max interaction (Myc-Max interaction) | inhibition at 25 µM [3, 7] [%] | inhibition at 12 µM (HO15.19 cells; Rattus norvegicus, HO15.19) [%] | PARP effect (LNCaP cells [5]) | PARP cleavage / apoptosis (LNCaP cells [5]) | other results |
| --- | --- | --- | --- | --- | --- | --- | --- | --- | --- | --- | --- | --- | --- | --- |
| – | 10 | 8.5 | average | NC(=O)c1ccsc1NC(=O)Nc1cccc(C(F)(F)F)c1 [VPC-70021] | 73 | 95 | – | – | – | 95 | 0 | nil | – | – |
| 2.5 | 9 | 8.9 | strong | FC(F)(F)c1cc(NC(=S)NCc2ccccc2)cc(C(F)(F)F)c1 [VPC-70063, 1-benzyl-3-(3,5-bis(trifluoromethyl)phenyl)thiourea] | 94 | 106 | prevented from interacting with the immobilized DNA | 40 | dose response inhibition of the interaction between the two proteins | 106 | 35 | strong | inducing PARP cleavage; also recorded: induces apoptosis | effect on Myc-Max/DNA complex dissociation (Myc-Max complex; concentration below 100 μM): did not see any significant effect; MYC/MAX binding to DNA (Myc-Max complex; concentration higher than 100 μM): dose response decrease of the MYC/MAX binding to DNA; inhibition at 3 µM (LNCaP cells [1]; 3 μM, read-out: % of LNCaP cells inhibited): 70%; effect on c-Myc knockout cells (HO15.19 cells; 3 μM): no significant effect; inhibition at 2.5 µM (HO15.19 cells; Rattus norvegicus, HO15.19, 2.5 μM (IC50 in LNCaP cells)): ~7%; reduction of UBE2C promotor activity [2]: highest reduction of UBE2C promotor activity |
| 11.1 | 22 | 22.7 | strong | O=C1NC(=S)S/C1=C\c1ccccc1C(F)(F)F [VPC-70067] | 71 | 98 | prevented from interacting with the immobilized DNA | – | – | – | 3 | good | inducing PARP cleavage | inhibition at 25 µM ([3]; LNCaP, TABLE 4, read-out: % Inhibition (25 μM)): 98% |
| – | 1 | – | weak | O=C(NNc1ccc(C(F)(F)F)cc1[N+](=O)[O-])c1cnccn1 [VPC-70127] | – | – | – | – | – | – | 19 | strong | – | inhibition at 25 µM ([3]; LNCaP, TABLE 6, read-out: % Inhibition 25 μM): 106% |

— patent publication US12017975B2, “Myc-Max inhibitor compound therapeutics for cancer treatment, methods and uses associated therewith” (THE UNIVERSITY OF BRITISH COLUMBIA, priority 2018, dated 2024)
